Like-named read-outs stand apart in the source and are kept apart here.
Experiments:
[1] = system: PGE2 Inhibited TNFα in human whole blood; assay: Human whole blood assay (Reversal of PGE2 Inhibited TNFα); assay type: cell-based; settings: for times more potent than reference EP4 antagonists (whole blood assay): PGE2 mediated TNF-α
Procedure: Blood was collected from normal volunteer donors into sodium heparin vacutainer tubes. Donors had not taken glucocorticoids within 2 weeks of the donation. […] The plates were incubated for 20–24 h at 37 °C, 5% CO2, in a humidified atmosphere. […] Plasma was removed from the cell layer and was transferred to v‐bottom polypropylene plates. […] The plates were read at A450‐A650 on a plate reader (Molecular Devices Versamax) using SOFTmaxPRO (v. 4.3.I) software. IC50s were calculated using Graphpad Prism (v. 4) nonlinear regression, sigmoidal dose response curve fitting. Results are expressed as the geometric mean ± SD.

Rat EP4 = molecular target: T1, Rat EP4 (Rattus norvegicus, UniProt P43114); assay: EP4 cAMP antagonist assay (HTRF), rat EP4; assay type: cell-based; settings: read-out: cAMP Antagonism Rat EP4 IC50
T1 construct: expressed in transfected cells
T1 sequence (P43114 whole entry): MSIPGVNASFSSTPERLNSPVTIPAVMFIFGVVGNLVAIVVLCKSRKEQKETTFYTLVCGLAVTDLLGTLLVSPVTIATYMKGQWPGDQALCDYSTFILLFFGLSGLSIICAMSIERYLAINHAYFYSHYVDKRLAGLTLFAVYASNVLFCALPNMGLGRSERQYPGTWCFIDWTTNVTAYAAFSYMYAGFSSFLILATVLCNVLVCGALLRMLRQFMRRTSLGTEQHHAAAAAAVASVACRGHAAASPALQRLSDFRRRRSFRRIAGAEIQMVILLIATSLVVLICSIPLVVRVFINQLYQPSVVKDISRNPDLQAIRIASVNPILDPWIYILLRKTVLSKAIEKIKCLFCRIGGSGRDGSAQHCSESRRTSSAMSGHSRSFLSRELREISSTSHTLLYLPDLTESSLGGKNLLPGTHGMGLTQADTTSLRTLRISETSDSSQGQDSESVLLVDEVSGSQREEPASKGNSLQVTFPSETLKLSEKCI
Procedure: (§1) Human EP4 (GenBank Accession # AY429109, Clone ID PER0400000, UMR cDNA Resource Center, Rolla, MO) was stably expressed in HEK293 cells. Rat EP4 cDNA (GenBank Accession# NM_03276) was cloned into pcDNA 3.1 vector and stably transfected into HEK293 cells. The cell lines were maintained in DMEM (invitrogen) supplemented with 10% fetal bovine serum (FBS), 1 mmol/L sodium pyruvate, 10 mmol/L HEPES, 500 μg/mL geneticin and 2 mmol/L L‐glutamine. Confluent cultures were grown at 37°C in an atmosphere containing 5% CO2. Cells were harvested using 0.25% Trypsin‐ EDTA, suspended in freeze media at a density of 10^7cel1s/mL, and aliquots were stored in liquid nitrogen. Immediately prior to the assay, cells were thawed with DMEM and suspended in cAMP assay buffer (HBSS with 0.1% BSA, 20 mmol/L HEPES and 200 μmol/L IBMX).
(§2) CJ‐023,423 served as the positive control. To measure the cAMP levels, cAMP‐d2 conjugate and anti cAMP‐cryptate conjugate in lysis buffer were incubated with the treated cells at room temperature for 1 h. The HTRF signal was detected using an EnVision plate reader (Perkin‐Elmer, Inc., Waltham, MA, USA.) to calculate the ratio of fluorescence at 665 to 620 nm. The raw data were converted to cAMP (nmol/L) using a cAMP standard curve generated for each experiment. Data were analyzed using a 4‐parameter nonlinear logistic equation. Results are expressed as the geometric mean ± standard deviation or geometric mean ± standard error as noted.

human EP2 receptor = molecular target: T2, human EP2 receptor (Homo sapiens, UniProt P43116); assay: [3H]-PGE2 receptor binding assay, EP2 membranes
T2 construct: host or cells: HEK293, transient; membrane preparation
T2 sequence (P43116 whole entry): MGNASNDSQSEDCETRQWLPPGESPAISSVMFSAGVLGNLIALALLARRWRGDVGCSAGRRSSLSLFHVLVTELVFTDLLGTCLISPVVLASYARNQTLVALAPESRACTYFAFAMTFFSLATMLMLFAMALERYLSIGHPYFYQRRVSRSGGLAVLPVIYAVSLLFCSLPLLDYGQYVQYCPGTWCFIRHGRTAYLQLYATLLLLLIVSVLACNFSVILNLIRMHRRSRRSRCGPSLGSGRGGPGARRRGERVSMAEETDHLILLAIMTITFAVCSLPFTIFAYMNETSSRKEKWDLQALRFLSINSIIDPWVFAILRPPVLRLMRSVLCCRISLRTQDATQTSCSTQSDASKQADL
Procedure: Receptor binding assays were done using membrane preparations of HEK 293 cells transfected with various prostanoid receptors using previously published procedure (Nakao et al. 2007). EP1 and EP4 membranes were prepared from recombinant HEK293 cells stably expressing human EPl receptor (GenBank Accession # AY275470, Clone ID PER0100000, UMR cDNA Resource Center, Rolla, MO) or human EP4 receptor. EP2 and EP3 membranes were prepared from HEK293 cells transiently transfected with human EP2 receptor (GenBank Accession # AY275471, Clone ID PER0200000, UMR cDNA Resource Center, Rolla, MO) or human EP3 receptor (GenBank Accession # AY429108, Clone ID PER3VI0000, UMR cDNA Resource Center, Rolla, MO) plasmids. Frozen cell pellets were homogenized in homogenization buffer (10 mmol/L Tris‐HCl, pH7.4, 250 mmol/L sucrose, 1 mmol/L EDTA, 0.3 mmol/L indomethacin and protease inhibitor cocktail with EDTA (Roche Molecular Biochemicals, catalog # 1691498)) using a Teflon/glass homogenizer. After a low speed centrifugation (200g for 15 min at 4°C) the supernatant was subjected to high speed centrifugation (30,000g for 60 min at 4°C). Membrane protein preparation was aliquoted and quick frozen on dry ice prior to storage at −80°C. […] Compounds were tested in a 96‐well format using a three‐fold dilution series to generate 10‐point curves. […] The binding reaction was performed in 200 μL MES buffer (10 mmol/L MES, pH 6.0, 10 mmol/L MgCl2, and l mmol/L EDTA) using polystyrene 96‐well plates. […] The membranes were harvested by filtration (TomTek harvester), washed four times with cold buffer (10 mmol/L MES, pH 6.0, 10 mmol/L MgCl2), dried in a 60°C oven, and the radioactivity was quantified as counts per min (CPM) using a TopCount detector. […] Data were analyzed using a 4‐parameter nonlinear logistic equation. K i Conversion from IC50 Values (K i = […] where [L] is the ligand concentration). Results are expressed as the geometric mean ± standard deviation or geometric mean ± standard error as noted.

Human EP4 = Human EP4 (Homo sapiens, UniProt P35408); assay: EP4 cAMP antagonist assay (HTRF), human EP4; assay type: cell-based; settings: read-out: cAMP Antagonism (hEP4) Human EP4 IC50
Chain of Human EP4 (P35408 whole entry): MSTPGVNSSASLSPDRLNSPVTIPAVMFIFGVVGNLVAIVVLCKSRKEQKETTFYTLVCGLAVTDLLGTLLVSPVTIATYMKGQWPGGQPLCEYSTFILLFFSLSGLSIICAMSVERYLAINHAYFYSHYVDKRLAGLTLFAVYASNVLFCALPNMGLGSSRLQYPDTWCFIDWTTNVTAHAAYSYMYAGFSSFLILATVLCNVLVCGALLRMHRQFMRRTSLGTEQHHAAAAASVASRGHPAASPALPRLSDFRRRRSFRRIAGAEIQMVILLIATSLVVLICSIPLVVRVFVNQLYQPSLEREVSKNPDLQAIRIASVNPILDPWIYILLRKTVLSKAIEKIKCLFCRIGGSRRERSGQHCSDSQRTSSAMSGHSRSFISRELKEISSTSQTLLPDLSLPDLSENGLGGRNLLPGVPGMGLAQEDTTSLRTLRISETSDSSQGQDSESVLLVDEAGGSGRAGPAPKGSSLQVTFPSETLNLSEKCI
Procedure: as §1, with “Cells were harvested using 0.25% Trypsin‐ EDTA, suspended in freeze media at a density of 10^7cel1s/mL, and aliquots were stored in liquid nitrogen.” left out
as §2, with “To” for “CJ‐023,423 served as the positive control. To”, “The HTRF signal was detected using an EnVision plate reader (Perkin‐Elmer, Inc., Waltham, MA, USA.) to calculate the ratio of fluorescence at 665 to 620 nm.” left out

[2] = HEK293 membranes, [3H]-PGE2, geometric mean ± SEM, read-out: hEP1-4 receptor binding EP2 Ki

Question: Which “times more potent than reference EP4 antagonists (whole blood assay)” value ([1]; human whole blood) does the source give for `C[C@H](NC(=O)[C@H]1CCCCN1CCOc1ccccc1)c1ccc(C(=O)O)cc1` [Compound 2] here?
Answer: Its value is 5–10 times.

Question: And the IC50 (Rat EP4)?
Answer: The IC50 was 15.4 nM.

Question: What about the Ki (human EP2 receptor; [2]) of the same molecule?
Answer: The Ki was 1210 ± 509 nM.

Question: And the Ki (human EP2 receptor; read-out: Ki for EP2 receptor)?
Answer: The Ki was 1200 nM.

Question: What does the source list for `Cc1ccc(N2CCC(O)CC2)nc1C(=O)Nc1c(C)cc(C(=O)O)cc1C` [Compound 1]?
Answer: IC50 (Human EP4): ~6 nM; times more potent than reference EP4 antagonists (whole blood assay) ([1]; human whole blood): 5–10 times; IC50 ([1]; read-out: Human whole blood (Reversal of PGE2 Inhibited TNFα) IC50, 10 μg/ml LPS + 10 nmol/L PGE2, 20–24 h, geometric mean ± SD): 123 ± 80 nM; IC50 (Rat EP4): 12.3 nM

Question: What does the source list for `Cc1ccc(-c2cccc(CO)c2)nc1C(=O)Nc1c(C)ccc(C(=O)O)c1C` [Compound 3]?
Answer: IC50 (Human EP4; HEK293 cells stably expressing human EP4, PGE2 at EC80, geometric mean ± SEM): 2.4 ± 1.4 nM; IC50 (Rat EP4): 1 nM; Ki (human EP2 receptor; [2]): > 18900 nM

Question: Which results are given for `C[C@H](NC(=O)c1cc(Cl)ccc1Oc1ccc(F)cc1)c1ccc(C(=O)O)cc1` [CJ‐042,794, reference compound]?
Answer: IC50 (Human EP4): 4.5 ± 1.85 nM; reversal of PGE2 suppression of LPS stimulated TNF‐α production ([1]; human whole blood, various concentrations (Fig. 5A)): reversed; IC50 (Rat EP4): 20.6 ± 1.8 nM; Ki (human EP2 receptor; [2]): 931 ± 457 nM
